In PubChem BioAssay AID248 (DTP/NCI, 2004):
Where “and” joins values, the source holds several entries; their conditions need not be identical. Equal values may be shown once. Toxic doses and inconclusive results are not listed. Cut-off read from the data, not from the text of the source: active = T/C of 150% or more; inactive = T/C below 125%.

Test system: L1210 leukemia ip in BDF1 mice, survival T/C
Assay: NCI In Vivo Anticancer Drug Screen. Data for tumor model L1210 Leukemia (intraperitoneal) in B6D2F1 (BDF1) mice
Details: endpoint: mean survival time, higher = longer survival
Summary of the method: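 Read-out is survival time, reported as the treated-group measurement over the vehicle-control measurement.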

[1] = dose: 100.0 mg/kg/injection, schedule: Q01DX001 (ip), vehicle: saline
[2] = dose: 100.0 mg/kg/injection, schedule: Q01DX009 (ip), vehicle: saline with Tween-80
[3] = dose: 200.0 mg/kg/injection, schedule: Q01DX001 (ip), vehicle: saline
[4] = dose: 400.0 mg/kg/injection, schedule: Q01DX001 (ip), vehicle: saline
[5] = dose: 100.0 mg/kg/injection, schedule: Q01DX009 (ip), vehicle: Klucel (hydroxypropylcellulose) (HPC)
[6] = dose: 200.0 mg/kg/injection, schedule: Q01DX009 (ip), vehicle: Klucel (hydroxypropylcellulose) (HPC)
[7] = dose: 100.0 mg/kg/injection, schedule: Q04DX003 (ip), vehicle: Klucel (hydroxypropylcellulose) (HPC)
[8] = dose: 200.0 mg/kg/injection, schedule: Q04DX003 (ip), vehicle: Klucel (hydroxypropylcellulose) (HPC)
[9] = dose: 400.0 mg/kg/injection, schedule: Q01DX009 (ip), vehicle: Klucel (hydroxypropylcellulose) (HPC)
[10] = dose: 400.0 mg/kg/injection, schedule: Q04DX003 (ip), vehicle: Klucel (hydroxypropylcellulose) (HPC)

Measured: T/C

O=C(O)CSc1ccc(NC(=O)Nc2ccccc2F)cc1
inactive: [1] 90 % of control | [2] 92 % of control | dose: 100.0 mg/kg/injection, schedule: Q04DX003 (ip), vehicle: saline 100 % of control | [3] 88 % of control | dose: 200.0 mg/kg/injection, schedule: Q01DX009 (ip), vehicle: saline with Tween-80 89 % of control | dose: 200.0 mg/kg/injection, schedule: Q04DX003 (ip), vehicle: saline 94 % of control | [4] 92 % of control | dose: 400.0 mg/kg/injection, schedule: Q01DX009 (ip), vehicle: saline with Tween-80 86 % of control | dose: 400.0 mg/kg/injection, schedule: Q04DX003 (ip), vehicle: saline 92 % of control

O=Cc1cc(C(=O)c2ccccn2)c2cc(Cl)cc(Cl)c2n1
inactive: dose: 100.0 mg/kg/injection, schedule: Q01DX001 (ip), vehicle: Klucel (hydroxypropylcellulose) (HPC) 94 % of control | [5] 107 % of control | dose: 200.0 mg/kg/injection, schedule: Q01DX001 (ip), vehicle: Klucel (hydroxypropylcellulose) (HPC) 89 % of control | [6] 96 % of control | dose: 400.0 mg/kg/injection, schedule: Q01DX001 (ip), vehicle: Klucel (hydroxypropylcellulose) (HPC) 94 % of control

O=C(O)C/C1=C/CCCCCC1
inactive: [1] 96 % of control | dose: 100.0 mg/kg/injection, schedule: Q01DX009 (ip), vehicle: saline 96 % of control | [3] 92 % of control | dose: 200.0 mg/kg/injection, schedule: Q01DX009 (ip), vehicle: saline 96 % of control | [4] 101 % of control | dose: 400.0 mg/kg/injection, schedule: Q01DX009 (ip), vehicle: saline 93 % of control

c1ccc(/C2=C(\c3ccccc3)CSSSSC2)cc1
inactive: dose: 50.0 mg/kg/injection, schedule: Q04DX003 (ip), vehicle: Klucel (hydroxypropylcellulose) (HPC) 105 % of control | [7] 98 % of control | [8] 98 % of control

CC(=O)Oc1ccc(N2C(=O)C=CC2=O)cc1 (tested in a mixture with another compound)
inactive: dose: 100.0 mg/kg/injection, schedule: Q04DX003 (ip), vehicle: acetone 96 % of control | dose: 100.0 mg/kg/injection, schedule: Q04DX003 (ip), vehicle: other 89 % of control | dose: 200.0 mg/kg/injection, schedule: Q04DX003 (ip), vehicle: acetone 96 % of control | dose: 400.0 mg/kg/injection, schedule: Q04DX003 (ip), vehicle: acetone 100 % of control | dose: 400.0 mg/kg/injection, schedule: Q04DX003 (ip), vehicle: other 87 % of control

CC(=O)Nc1ccc(/C=N\NC(=S)Nc2ccccc2)cc1
inactive: [5] 107 % of control | [6] 93 % of control | [9] 94 % of control

COc1cccc(CNc2cccc([N+](=O)[O-])c2)c1OC
inactive: [5] 95 % of control | [7] 102 % of control | [6] 97 % of control | [8] 96 % of control | [9] 95 % of control | [10] 95 % of control

c1ccc(/C(N=NC(c2ccccc2)(c2ccccc2)c2ccccc2)=C(/N=NC(c2ccccc2)(c2ccccc2)c2ccccc2)c2ccccc2)cc1
inactive: dose: 100.0 mg/kg/injection, schedule: Q01DX009 (ip), vehicle: saline sonified 94 % of control | dose: 200.0 mg/kg/injection, schedule: Q01DX009 (ip), vehicle: saline sonified 97 % of control | dose: 400.0 mg/kg/injection, schedule: Q01DX009 (ip), vehicle: saline sonified 94 % of control

CCOC(CNC(=O)OCc1ccccc1)OCC
inactive: dose: 50.0 mg/kg/injection, schedule: Q01DX009 (ip), vehicle: Klucel (hydroxypropylcellulose) (HPC) 98 % of control | [5] 96 % of control and 106 % of control | [7] 96 % of control | dose: 150.0 mg/kg/injection, schedule: Q01DX009 (ip), vehicle: Klucel (hydroxypropylcellulose) (HPC) 102 % of control | [6] 98 % of control | [8] 105 % of control | [9] 101 % of control | [10] 97 % of control

CC1CCCN(c2ccc([N+](=O)[O-])cc2[N+](=O)[O-])C1 (stereo unspecified)
inactive: [5] 105 % of control | [7] 99 % of control | [6] 96 % of control | [8] 92 % of control | [9] 99 % of control | [10] 97 % of control

COc1ccc(C)cc1NC(=O)Sc1ccc(Cl)cc1
inactive: dose: 50.0 mg/kg/injection, schedule: Q01DX009 (ip), vehicle: saline with Tween-80 117 % of control | [2] 95 % of control
